These results are taken from US20140315886A1, “QUINAZOLINES AS THERAPEUTIC COMPOUNDS AND RELATED METHODS OF USE” (OTSUKA PHARMACEUTICAL CO., LTD., priority 2011, published 2014).

In this assay the target is T1, purified STEP46 enzyme (Homo sapiens, UniProt P54829).
T1 sequence (P54829 197-565 limits assumed): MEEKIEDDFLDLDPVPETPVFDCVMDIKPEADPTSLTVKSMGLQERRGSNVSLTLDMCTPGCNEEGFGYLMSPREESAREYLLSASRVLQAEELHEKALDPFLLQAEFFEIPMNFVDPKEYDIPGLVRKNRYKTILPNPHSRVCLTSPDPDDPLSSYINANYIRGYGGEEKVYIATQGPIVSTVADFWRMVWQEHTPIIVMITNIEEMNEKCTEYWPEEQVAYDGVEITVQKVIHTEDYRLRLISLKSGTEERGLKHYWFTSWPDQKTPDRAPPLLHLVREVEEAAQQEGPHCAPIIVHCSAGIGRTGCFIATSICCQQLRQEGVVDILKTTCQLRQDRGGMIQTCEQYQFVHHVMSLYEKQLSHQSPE
The experiment in a line: STEP46 biochemical assay (DiFMUP fluorescence phosphatase assay). As to conditions: DiFMUP 10 μM, read-out: STEP IC50. On the procedure:
Serial dilutions of compounds were performed in 100% DMSO and 1 uL of compounds were dispensed into 384-well black polystyrene plates (Corning, N.Y.). Compounds were incubated with 24 uL of buffer containing 50 mM Hepes, 1 mM DTT, 0.02% Brij35, 1 ng/well purified STEP46 enzyme for […] at room temperature. The reaction was initiated by addition of 25 uL of DiFMUP (6,8-difluoro-4-methylumbelliferyl phosphate) (InVitrogen, CA) with a final concentration of 10 μM and incubated at 27° C. for 90 mM Final DMSO concentration is 2%. Plates were read with florescence intensity at excitation/emission of 360/460 nm using a PheraStar plate reader (BMG Labtech, NC).
Data were expressed as percentage (%) inhibition of enzyme activity. 0% inhibition is defined as the RFUs (relative fluorescence units) in the absence of compounds and 100% inhibition is defined as RFUs in the absence of STEP46 enzyme. IC50 values of compounds with inhibitory activity against STEP46 were determined by GraphPad Prism (version 4.03) using four parameter logistic equation. Some compounds act as activators. For compounds showing STEP46 enzymatic activation, data are represented as percentage of inhibition but with negative values at three representative concentrations (25, 50 and 100 uM).
In general, IC50 refers to the point on the concentration scale where inhibition reaches its midpoint. On to `CNc1nc(-c2cccnc2)nc2ccc(-c3ccc4c(c3)OCCCO4)cc12` [Compound 170], for which the IC50 is > 10 µM.
For `CNc1nc(-c2cccnc2)nc2ccc(-c3ccc(CO)cc3)cc12` [Compound 173], the IC50 was 1 to 10 µM.
In the case of `CNc1nc(-c2cccnc2)nc2ccc(-c3ncco3)cc12` [Compound 178], the IC50 is > 10 µM.
Then `CNC(=O)c1cc(-c2ccc3nc(-c4cccnc4)nc(NC)c3c2)ccc1F` [Compound 180], with 1 to 10 µM.
For `CNc1nc(-c2cccnc2)nc2ccc(-c3ccc(F)c(C(N)=O)c3)cc12` [Compound 183] the value was 1 to 10 µM; for `CNc1nc(-c2cccnc2)nc2c(OC)cc(-c3cccc(F)c3F)cc12` [Compound 194], 1 to 10 µM.
For `CNc1nc(-c2cccnc2)nc2c(OC)cc(-c3ccc(F)cc3F)cc12` [Compound 195] the value was < 1 µM; for `CNc1nc(-c2cccnc2)nc2cc(F)c(-c3ccc(F)cc3F)cc12` [Compound 196], < 1 µM; for `CNc1nc(-c2cccnc2)nc2cc(C(F)(F)F)c(-c3ccc(F)cc3F)cc12` [Compound 198], > 10 µM.
Consider `CNc1nc(-c2cccnc2)nc2ccc(-c3ccc(S(C)(=O)=O)c(C(F)(F)F)c3)cc12` [Compound 199], for which the IC50 fell in the range of 1 to 10 µM.
For `CCOc1ccc(F)c(-c2ccc3nc(-c4cccnc4)nc(NC)c3c2)c1` [Compound 201] the value was 1 to 10 µM; for `CNc1nc(-c2cccnc2)nc2ccc(-c3ccc(C(F)(F)F)cc3C(F)(F)F)cc12` [Compound 202], > 10 µM; for `CNc1nc(-c2cccnc2)nc2c(OC)cc(-c3cc(F)cc(F)c3)cc12` [Compound 204], 1 to 10 µM.
For the molecule `CNc1nc(-c2cccnc2)nc2c(OC)cc(-c3ccccc3C#N)cc12` [Compound 205], the IC50 lay within 1 to 10 µM.
Then `CNc1nc(-c2cccnc2)nc2c(OC)cc(-c3cccc(C#N)c3)cc12` [Compound 206], with > 10 µM; and `CNc1nc(-c2cccnc2)nc2c(OC)cc(-c3ccccc3OC)cc12` [Compound 207], with 1 to 10 µM.
In the case of `CNc1nc(-c2cccnc2)nc2c(OC)cc(-c3ccc(OC)cc3)cc12` [Compound 208], the IC50 lay within 1 to 10 µM.
For `CNc1nc(-c2cccnc2)nc2cc(OC(F)(F)F)c(-c3cccc(F)c3)cc12` [Compound 209] the value was 1 to 10 µM; for `CNc1nc(-c2cncnc2)nc2ccc(-c3cccc(F)c3)cc12` [Compound 210], 1 to 10 µM; for `CNc1nc(-c2ccnnc2)nc2ccc(-c3cccc(F)c3)cc12` [Compound 212], > 10 µM.
Then `Nc1nc(-c2cncnc2)nc2ccc(-c3cccc(F)c3)cc12` [Compound 213], with > 10 µM; and `CNc1nc(-c2cccnc2F)nc2ccc(-c3cccc(F)c3)cc12` [Compound 214], with 1 to 10 µM; and `CNc1nc(-c2cccnc2)nc2cc(-c3cccc(OC)c3F)ccc12` [Compound 215], with 1 to 10 µM.
As to `CNc1nc(-c2cccnc2)nc2cc(-c3ccc(OC)cc3F)ccc12` [Compound 218], the half-inhibitory concentration (IC50) fell in the range of 1 to 10 µM.
Then `CNc1nc(-c2cccnc2)nc2cc(-c3cc(OC)ccc3F)ccc12` [Compound 219], with 1 to 10 µM; and `CNc1nc(-c2cccnc2C)nc2ccc(-c3cccc(F)c3)cc12` [Compound 220], with 1 to 10 µM.
Consider `CNc1nc(-c2cccnc2)nc2ccc(-c3cccc(F)c3F)c(F)c12` [Compound 221], for which the IC50 was 1 to 10 µM.
For the molecule `CNc1nc(-c2cccnc2)nc2ccc(-c3ccc(F)cc3F)c(F)c12` [Compound 222], the IC50 was 1 to 10 µM.
Then `CNc1nc(-c2cccnc2)nc2ccc(-c3cccc(F)c3)c(F)c12` [Compound 223], with 1 to 10 µM; and `CNc1nc(-c2cccnc2)nc2ccc(-c3cccc(OCCC(C)O)c3)cc12` (centres unmarked) [Compound 224], with 1 to 10 µM; and `CNc1nc(-c2cccnc2)nc2cc(OC)c(-c3cccc(F)c3F)cc12` [Compound 230], with 1 to 10 µM.
On to `CNc1nc(-c2cccnc2)nc2ccc(-c3ccc(F)c4ccoc34)cc12` [Compound 233], for which the IC50 is < 1 µM.
`CNc1nc(-c2cccnc2)nc2ccc(-c3cccc(S(N)(=O)=O)c3)cc12` [Compound 235]: the IC50 was > 10 µM.
Then `CNc1nc(-c2cccnc2)nc2ccc(-c3ccc(C)cc3F)cc12` [Compound 239], with 1 to 10 µM; and `CNc1nc(-c2cccnc2)nc2ccc(-c3cc(Cl)ccc3F)cc12` [Compound 240], with 1 to 10 µM; and `CNc1nc(-c2cccnc2)nc2ccc(-c3c(F)cccc3Cl)cc12` [Compound 241], with 1 to 10 µM.
For `CCOc1cccc(-c2ccc3nc(-c4cccnc4)nc(NC)c3c2)c1F` [Compound 242] the value was > 10 µM; for `CNc1nc(-c2cccnc2)nc2c(Cl)cc(-c3cccc(F)c3F)cc12` [Compound 243], 1 to 10 µM; for `CNc1nc(-c2cccnc2)nc2c(Cl)cc(-c3ccc(F)cc3F)cc12` [Compound 244], 1 to 10 µM.
As to `CNc1nc(-c2cccnc2)nc2ccc(-c3cccc(S(C)(=O)=O)c3)cc12` [Compound 245], the IC50 is > 10 µM.
Then `CNc1nc(-c2cccnc2)nc2cc(Cl)c(-c3ccc(F)cc3F)cc12` [Compound 246], with 1 to 10 µM.
For `CNc1nc(-c2cccnc2)nc2ccc(-c3ccc(F)cc3C)cc12` [Compound 247] the value was 1 to 10 µM.
Then `CNc1nc(-c2cccnc2)nc2ccc(-c3ccc(F)cc3C(F)(F)F)cc12` [Compound 248], with > 10 µM; and `CNc1nc(-c2cccnc2)nc2ccc(-c3ccc(OC)cc3C(F)(F)F)cc12` [Compound 249], with > 10 µM; and `CNc1nc(-c2cccnc2)nc2ccc(-c3cccc(-c4ncco4)c3)cc12` [Compound 250], with < 1 µM.
As for `CNc1nc(-c2cccnc2)nc2c(OC)cc(-c3cc(F)ccc3F)cc12` [Compound 252], the half-maximal inhibitory concentration (IC50) is 1 to 10 µM.
For `CNc1nc(-c2cccnc2)nc2c(OC)cc(-c3cccc(F)c3)cc12` [Compound 253] the value was 1 to 10 µM; for `CNc1nc(-c2cccnc2)nc2c(OC)cc(-c3ccccc3F)cc12` [Compound 254], 1 to 10 µM; for `CNc1nc(-c2cccnc2)nc2c(OC)cc(-c3ccc(F)c(F)c3)cc12` [Compound 255], 1 to 10 µM.
With `CNc1nc(-c2cccnc2)nc2ccc(-c3ccc(S(=O)(=O)C(C)C)cc3)cc12` [Compound 256], the IC50 was > 10 µM.
For `CNc1nc(-c2cccnc2)nc2ccc(-c3cccc(OC(C)C)c3)cc12` [Compound 257], the IC50 was > 10 µM.
For `CNc1nc(-c2cccnc2)nc2c(OC)cc(-c3ccc(F)cc3)cc12` [Compound 259] the value was > 10 µM; for `CNc1nc(-c2cccnc2)nc2c(OC)cc(-c3ccc(C#N)cc3)cc12` [Compound 260], > 10 µM; for `CNc1nc(-c2cccnc2)nc2ccc(-c3cc(OC(F)(F)F)ccc3F)cc12` [Compound 263], 1 to 10 µM.
Then `CNc1nc(-c2cccnc2)nc2c(Cl)cc(-c3cccc(F)c3)cc12` [Compound 264], with 1 to 10 µM; and `CNc1nc(-c2cccnc2)nc2ccc(-c3cccc(C)c3Cl)cc12` [Compound 268], with > 10 µM; and `CNc1nc(-c2cccnc2)nc2c(-c3cccc(C#N)c3)cccc12` [Compound 272], with < 1 µM.
Then `CNc1nc(-c2cccnc2)nc2cc(-c3ccc(C)o3)ccc12` [Compound 273], with 1 to 10 µM; and `CNc1nc(-c2cccnc2)nc2c(-c3cccc(F)c3)cccc12` [Compound 274], with 1 to 10 µM.
For `CNc1nc(-c2cccnc2)nc2cc(-c3ccoc3C)ccc12` [Compound 275], the IC50 was > 10 µM.
Then `CNc1nc(-c2cccnc2)nc2cc(-c3cc(C)oc3C)ccc12` [Compound 276], with > 10 µM; and `CNc1nc(-c2cccnc2)nc2c(-c3cc(F)cc(F)c3)cccc12` [Compound 277], with > 10 µM.
For `CNc1nc(-c2cccnc2)nc2c(-c3ccc(F)c(F)c3)cccc12` [Compound 278] the value was 1 to 10 µM; for `CNc1nc(-c2cccnc2)nc2cc(-c3cc(F)cc(OC)c3)ccc12` [Compound 279], < 1 µM.
Then `CNc1nc(-c2cccnc2)nc2ccc(-c3cc(F)nc(F)c3)cc12` [Compound 283], with 1 to 10 µM; and `CNc1nc(-c2cccnc2)nc2cc(-c3cc(F)nc(F)c3)ccc12` [Compound 284], with < 1 µM.
Take `CNc1nc(-c2cccnc2)nc2ccc(-c3cc(C)oc3C)cc12` [Compound 285]: the IC50 is 1 to 10 µM.
Then `CNc1nc(-c2cccnc2)nc2c(C)c(-c3ccc(F)c(F)c3F)ccc12` [Compound 286], with 1 to 10 µM.
